According to ChEMBL document CHEMBL2390823, “Aryl uracil inhibitors of hepatitis C virus NS5B polymerase: synthesis and characterization of analogs with a fused 5,6-bicyclic ring motif” (Bioorg Med Chem Lett, 2013):

Experiments:
[1] = tested on: Hepatitis C virus; experiment: Antiviral activity against Hepatitis C virus genotype 1b infected in human HuH7 cells in presence of 40% human plasma; type: functional, organism-based, Hepacivirus hominis; conditions: Huh-7, Plasma
[2] = (§1) Oral bioavailability in rat at 5 mg/kg; type: ADME, organism-based; conditions: in vivo
[3] = (§2) Cmax in rat at 5 mg/kg, po; type: ADME, organism-based; set-up: dose 5 mg/kg, route oral; conditions: in vivo
[4] = Inhibition of Hepatitis C virus genotype 1a NS5B polymerase; set-up: species or system Hepatitis C virus subtype 1a
[5] = Effective permeability of the compound by PAMPA; type: ADME; conditions: read-out: Peff
[6] = Half life in rat at 5 mg/kg, iv; type: ADME, organism-based; set-up: dose 5 mg/kg, route intravenous; conditions: in vivo
[7] = tested on: Hepatitis C virus; experiment: Antiviral activity against Hepatitis C virus genotype 1b infected in human HuH7 cells in presence of 5% fetal calf serum; type: functional, organism-based, Hepacivirus hominis; conditions: Huh-7
[8] = (§3) Tmax in rat at 5 mg/kg, po; type: ADME, organism-based; set-up: dose 5 mg/kg, route oral; conditions: in vivo
[9] = (§4) AUC (0 to infinity) in rat at 5 mg/kg, po; type: ADME, organism-based, Plasma; set-up: dose 5 mg/kg, route oral, time infinity; conditions: plasma
[10] = (§5) Half life in rat at 5 mg/kg, po; type: ADME, organism-based; set-up: dose 5 mg/kg, route oral; conditions: in vivo
[11] = tested on: Hepatitis C virus; experiment: Inhibition of Hepatitis C virus genotype 1b NS5B polymerase; set-up: species or system Hepatitis C virus subtype 1b
[12] = tested on: Hepatitis C virus; experiment: Antiviral activity against Hepatitis C virus genotype 1a infected in human HuH7 cells in presence of 5% fetal calf serum; type: functional, organism-based, Hepacivirus hominis; conditions: subtype 1a, Huh-7
[13] = (§6) Plasma clearance in rat at 5 mg/kg, iv; type: ADME, organism-based; set-up: dose 5 mg/kg, route intravenous; conditions: plasma
[14] = tested on: Rattus norvegicus; experiment: as §1; type: ADME, organism-based; conditions: in vivo
[15] = tested on: Rattus norvegicus; experiment: as §2; type: ADME, organism-based; set-up: dose 5 mg/kg, route oral; conditions: in vivo
[16] = tested on: Rattus norvegicus; experiment: as §3; type: ADME, organism-based; set-up: dose 5 mg/kg, route oral; conditions: in vivo
[17] = tested on: Rattus norvegicus; experiment: as §4; type: ADME, organism-based, Plasma; set-up: dose 5 mg/kg, route oral, time infinity; conditions: in vivo
[18] = tested on: Rattus norvegicus; experiment: as §5; type: ADME, organism-based; set-up: dose 5 mg/kg, route oral; conditions: in vivo
[19] = tested on: Rattus norvegicus; experiment: as §6; type: ADME, organism-based; set-up: dose 5 mg/kg, route intravenous; conditions: in vivo

Row | SMILES | EC50 [1] [nM] | bioavailability [2] [%] | Cmax [3] [ng/mL] | IC50 [4] [nM] | Papp [5] [×10⁻⁶ cm/s] | half-life [6] [h] | EC50 [7] [nM] | Tmax [8] [h] | AUC(0-inf) [9] [ng·h/mL] | half-life [10] [h] | IC50 [11] [nM] | EC50 [12] [nM] | clearance [13] [mL/min/kg] | F [14] [%] | Cmax [15] [ng/mL] | Tmax [16] [h] | AUC [17] [ng·h/mL] | t1/2 [18] [h] | CL [19] [mL/min/kg]
1 | COc1c(-c2ccc3c(c2)CC=C3CNS(C)(=O)=O)cc(-n2ccc(=O)[nH]c2=O)cc1C(C)(C)C | 22 | 86 | 660 | 6 | 5.43 | 1.9 | 3 | 6.17 | 7200 | 3 | 11 | 14 | 12.8 |  |  |  |  |  | 
2 | COc1c(-c2ccc3c(CNS(C)(=O)=O)coc3c2)cc(-n2ccc(=O)[nH]c2=O)cc1C(C)(C)C | 260 |  |  | 9 |  |  | 22 |  |  |  | 21 | 240 |  |  |  |  |  |  | 
3 | COc1c(-c2ccc3c(CNS(C)(=O)=O)noc3c2)cc(-n2ccc(=O)[nH]c2=O)cc1C(C)(C)C |  |  |  | 540 |  |  | > 1000 |  |  |  | 510 | > 1000 |  |  |  |  |  |  | 
4 | COc1c(-c2ccc3nc(NS(C)(=O)=O)sc3c2)cc(-n2ccc(=O)[nH]c2=O)cc1C(C)(C)C |  |  |  | 19 | 1.4 |  | > 1000 |  |  |  | 45 | > 1000 |  |  |  |  |  |  | 
5 | COc1c(-c2ccc3c(c2)CCC3NNS(C)(=O)=O)cc(-n2ccc(=O)[nH]c2=O)cc1C(C)(C)C (centres undefined) | 950 |  |  | 33 | 0.24 |  | > 100 |  |  |  | 47 | 140 |  |  |  |  |  |  | 
6 | COc1c(-c2ccc3c(c2)CCC3CNS(C)(=O)=O)cc(-n2ccc(=O)[nH]c2=O)cc1C(C)(C)C (centres undefined) | 13 | 119 | 2360 | 8 | 8.93 | 1.8 | 3 | 0.33 | 13500 | 2.3 | 18 | 20 | 7.5 |  |  |  |  |  | 
7 | COc1c(C(=O)Nc2ccc(NS(C)(=O)=O)cc2)cc(N2CCC(=O)NC2=O)cc1C(C)(C)C | 18 |  |  | 11 | 0.22 | 1.1 | 27 |  |  |  | 22 | 51 |  | 1.4 | 30 | 0.33 | 500 | 1 | 25.5
8 | COc1c(-c2ccc3c(c2)CC/C3=N\NS(C)(=O)=O)cc(-n2ccc(=O)[nH]c2=O)cc1C(C)(C)C | 1 | 18 | 120 | 3 | 0.47 | 2.8 | 1 | 2.5 | 880 | 3 | 3 | 2 | 19.8 |  |  |  |  |  | 
9 | COc1c(-c2ccc3c(c2)CCC3(C)CNS(C)(=O)=O)cc(-n2ccc(=O)[nH]c2=O)cc1C(C)(C)C (centres undefined) | 560 | 62 | 1010 | 16 |  | 2.3 | 89 | 0.25 | 5100 | 2.4 | 41 | 480 | 10.2 |  |  |  |  |  | 
10 | COc1c(-c2ccc3c(c2)CC=C3CN(C)S(C)(=O)=O)cc(-n2ccc(=O)[nH]c2=O)cc1C(C)(C)C | 50 |  |  | 7 |  |  | 100 |  |  |  | 20 | 4 |  |  |  |  |  |  | 
11 | COc1c(-c2ccc3c(c2)CC=C3C(C)(C)NS(C)(=O)=O)cc(-n2ccc(=O)[nH]c2=O)cc1C(C)(C)C | > 1000 |  |  | 185 | 4.06 |  | > 1000 |  |  |  | 215 | 1000 |  |  |  |  |  |  | 
12 | COc1c(-c2ccc3cc(CNS(C)(=O)=O)sc3c2)cc(-n2ccc(=O)[nH]c2=O)cc1C(C)(C)C | > 10000 |  |  | 180 | 0.81 |  | > 1000 |  |  |  | 245 | > 1000 |  |  |  |  |  |  | 
13 | COc1c(-c2ccc3c(CNS(C)(=O)=O)csc3c2)cc(-n2ccc(=O)[nH]c2=O)cc1C(C)(C)C | 46 | 41 | 1410 | 5 | 0.81 | 3.6 | 3 | 0.5 | 9300 | 3.2 | 10 | 27 | 4.5 |  |  |  |  |  | 
